Test results published in patent US20200306211A1, “METHOD FOR ADAPTING DOSES OF COMBINATION THERAPIES” (Pharnext, priority 2015, published 2020).

Tested on: young and elderly healthy volunteers
Test: Cognitive Event-Related Potentials (ERP) latency composite score, correlated with plasma drug concentrations
Type: in vivo, human
Conditions: plasma concentration at 1.5 h in subjects with best ERP latencies composite score (ERP at Day 10, 6 h post-dose)
Method: The study below was a double blind placebo control study performed in accordance with the European Medicines Agency ICH-E6 (R1) guideline recommendations and the French law n° 2004-806, Aug. 9, 2004 relative to public health law. The study was a preliminary study whose one of the objectives was to assess baclofen and acamprosate combinatorial treatment to improve cognition in young and elderly healthy volunteers. The study was conducted on a cohort of 24 human subjects.
Briefly, the duration of treatment was of 10 days.
Electrophysiological measurement of Cognitive Event-Related Potentials (ERPs) were recorded to assess the cognitive performances of the subjects. ERPs are the electrophysiological response to a stimulus and could serve as a surrogate biological marker of cognitive performances. Here, the cognitive task required paying attention and to count odd stimuli according to a specific protocol. Potential is recorded during the test. An ERP latency composite score is determined from the different derivations. […]
A correlation was searched between each of the different endpoints (i.e. the cognitive tests, or the ERP latency composite score) and drug concentrations determined at each sampling time.
Pearson's correlation coefficient was determined for each of the endpoints and different plasmatic concentrations measured as a function of time.

Row | SMILES | Most efficient plasmatic concentration in trial
1 | CC(=O)NCCCS(=O)(=O)O [acamprosate] | >2.5 ng/mL
2 | NCC(CC(=O)O)c1ccc(Cl)cc1 (centres unmarked) [baclofen] | ≥500 ng/mL
